Patent publication US20170027967A1, “PHARMACEUTICAL FORMULATIONS” (priority 2015, published 2017)
Where two headings read alike, the source gives them in different places.

Details: 40° C./75% RH open, 60° C. closed
Method: Studies were conducted to assess the stability of tenofovir alafenamide hemifumarate in the presence of (a) emtricitabine, and (b) emtricitabine and rilpivirine HCl.

SMILES: CC(C)OC(=O)[C@H](C)N[P@](=O)(CO[C@H](C)Cn1cnc2c(N)ncnc21)Oc1ccccc1 [tenofovir alafenamide hemifumarate]
- rate of degradation of tenofovir alafenamide hemifumarate (in the presence of both emtricitabine and rilpivirine HCl): further increased
- rate of degradation of tenofovir alafenamide hemifumarate (in the presence of emtricitabine): increased
